# Measured values as given in patent publication US20040009170A1, “Alpha-melanocyte stimulating hormone peptides protection in organ transplantation” (priority 2002, published 2004).
# Assays:
# [1] = test system: heart grafts (Brown Norway into Lewis rats); assay: Histopathological evaluation and ED1 immunohistochemistry of heart grafts; type: in vivo, rat
# Procedure: Experiments were performed to determine whether NDP-α-MSH treatment prolongs allograft survival. For this purpose, NDP-α-MSH or saline was administered from the time of transplantation until spontaneous rejection. In such experiments (n=7), rats were sacrificed when there was loss of palpable contractile activity of the graft. Studies were performed focusing on the influence of NDP-α-MSH on graft histopathology and transcripts involved in inflammation and rejection. For these studies, rats (n=6) were sacrificed 1 or 4 days after transplantation. NDP-α-MSH or saline was administered from day 0 until the sacrifice.
# Heart grafts, removed from rats on day 1, 4, or at the time of rejection, were sectioned coronally. Two sections were snap-frozen in liquid nitrogen and stored at −80° C. for RNA extraction and RT-PCR assays. One section was fixed in 10% buffered formalin and paraffin-embedded for light microscopy examination.
# Histopathological evaluation was then performed. Three μm coronal sections of heart grafts were stained with hematoxylin and eosin. Histopathological lesions were scored by two blinded observers using a 5-point scale according to combined assessments of edema (absent, perivascular/mild interstitial, subendocardial, diffuse interstitial, massive); inflammatory cell infiltration (absent, perivascular, subendocardial, diffuse interstitial, massive), and myocytolysis (absent, focal, massive): 0=minimum damage, 1+=mild damage, 2+=moderate damage, 3+=severe damage, and 4+=maximum damage.
# Analysis of graft infiltrating monocytes/macrophages was performed through immunohistochemical detection of ED1-positive cells. Sections were stained using the peroxidase-antiperoxidase (PAP) technique, after incubation with mouse anti-rat ED 1 or control antibody (Santa Cruz Biotech, Santa Cruz, Calif., USA). Slides were counterstained with hematoxylin and eosin.
# Statistical analysis was performed using SigmaStat statistical software (Jandel Scientific GmbH, Germany). Values are expressed as mean±SEM. Unpaired Student's t test was used to compare differences between values in histological scores. Difference in median graft survival time was evaluated using the Mann-Whitney Rank Sum Test. A probability value<0.05 was considered statistically significant.
# [2] = test system: donor cardiac grafts (Brown Norway) transplanted into recipient (Lewis) rats; assay: Heterotopic heart transplantation in rats: allograft survival; type: in vivo, rat
# Source text: Adult inbred Brown Norway (donor) and Lewis (recipient) male rats, weighing 200-300 g were used in this study (Charles River, Calco, Italy). Animals were maintained at the animal care facilities of the Department of Hepatology, Ospedale Maggiore di Milano, Italy, under standard temperature, humidity, and time-regulated light conditions. Water and food were provided ad libitum. All animals received care in compliance with the Principles of Laboratory Animal Care, formulated by the National Society of Medical Research, and the Guide for the Care and Use of Laboratory Animals, prepared by the National Academy of Sciences and published by the National Institutes of Health (NIH Publication No. 8623, revised 1985).
# Before transplantation, animals were anesthetized with an intraperitoneal injection of 125-mg/kg ketamine. During anesthesia, heart rate, ventilation rate, and temperature were closely monitored. Donor cardiac grafts (Brown Norway) were transplanted into the abdominal cavity of the recipient (Lewis) rats using the technique described by Ono and Lindsey. […] Graft function was monitored by palpation through the abdominal wall twice daily. […]
# Statistical analysis was performed using SigmaStat statistical software (Jandel Scientific GmbH, Germany). Values are expressed as mean±SEM. […] Difference in median graft survival time was evaluated using the Mann-Whitney Rank Sum Test. […]
# proteolytic enzymes = settings: cited from earlier work
# [3] = depending upon the assay employed; cited from earlier work
# [4] = Plasma nitrite (NO2-) determination after heart transplantation (Griess); type: in vivo, rat; settings: all intervals (day 1, day 4, rejection)
# Procedure: Plasma was separated by centrifugation, aliquoted, and stored at −80° C.
# Nitric oxide determinations were performed. Specifically, plasma nitrite concentration was determined at times of sacrifice as a measure of nitric oxide release. Nitrates (NO3^−) were converted into nitrites (NO2^−) by treatment of serum with nitrate reductase (Boehringer Mannheim Italia SpA, Milan, Italy). After enzymatic reduction, samples were mixed with equal amounts of Griess reagent (sulfanilamide 1%, napthlethylenediamide 0.1% in phosphoric acid 0.25%). Samples were incubated at room temperature for 10 min and absorbency was measured at 540 nm using a microplate automatic reader.
# [5] = 4 days after transplantation, vs untreated
# [6] = day 1 after transplantation, vs untreated
substance,measurement,setting,value
Nle^4DPhe^7-α-MSH [NDP-α-MSH],ED1-positive cells infiltrating the graft,[1]; [5],fewer and dispersed
same,Inflammation and edema,[1]; [5],milder and mostly restricted to the subendocardial region
same,Histopathological score of heart grafts,"[1]; 4 days after transplantation, untreated 10.8±0.80, p<0.01",7.0±0.64
same,"Histology of rejected hearts, treated vs untreated",[1]; at time of rejection,no significant differences
same,Inflammatory cell infiltration,[1]; [6],much less
same,Intragraft edema,[1]; [6],milder and generally restricted to the perivascular spaces
same,Histopathological score of heart grafts,"[1]; day 1 after transplantation, mean±SEM, untreated 8.7±0.25, p<0.001",3.0±0.90
same,Median graft survival,"[2]; 100 μg i.p. every 12 h from 1 h before transplantation until rejection, no immunosuppression, untreated 6 days, p<0.001",10 days
same,"Graft survival time, range","[2]; 100 μg i.p. every 12 h until rejection, untreated range 6-8",9 to 11 days
same,Inactivation by proteolytic enzymes,proteolytic enzymes,resistant
same,Activity relative to the natural molecule,[3],10- to 1000 times
same,Increases in plasma NO2- concentration vs untreated,[4],significantly lower
